Test [1] deals with tonic seizures induced by N-methyl-DL-aspartic acid (NMDLA) in male Swiss-Webster mice. As to the kind of experiment: Antagonism of NMDLA-induced tonic seizures in mice. The class given is in vivo, mouse (Swiss-Webster). The following applies: iv; mouse, i.v. test compound 15 min before s.c. NMDLA 500 mg/kg; observed 30 min; probit analysis. As to the method:
Compounds of the invention were examined for their ability to antagonise tonic seizures induced by N-methyl-DL-aspartic acid (NMDLA). Groups of 8 male Swiss-Webster mice (25 to 30 g) were injected intravenously with the test compound at various doses, 15 min before s.c. administration of NMDLA (500 mg/kg). […] ED50 values for the antagonism of the NMDLA induced tonic seizures were determined using probit analysis.

The test system of test [2] is responses to NMDA in rat cortical slice. As to the kind of experiment: Rat cortical slice: antagonism of responses to NMDA. In kind it is cell-based. The following applies: from righthand shift in NMDA concentration-response curve, read-out: apparent equilibrium constant (Kb). How it is done:
The effects of compounds of the invention on responses to NMDA were assessed using the rat cortical slice as described by Wong et al., Proc. Natl. Acad. Sci. USA, 1986, 83, 7104. The apparent equilibrium constant (Kb) was calculated from the righthand shift in the NMDA concentration-response curve produced by the compound under test.

Molecules are shown by their SMILES. Structures can show the parent of a compound that is named as a salt. Some results are limits rather than exact numbers.

Experimental findings from US4927819A, “Cyclo-octane neuroprotective agents” (Merck Sharp & Dohme Limited, priority 1987, dated 1990) are described below.

As for `CC12Cc3ccccc3CC(N1)c1ccccc12` (stereo not drawn) [Example 1, 6-Methyl-5,6,11,12-tetrahydrodibenzo[a,e]cycloocten-6,11-imine Hydrochloride], the ED50 – broadly, the dose at which the effect has come halfway, by size or by number of responders – in test [1] is < 5 mg/kg. As for `CC12Cc3ccc(Br)cc3CC(N1)c1ccccc12` (stereo not drawn) [Example 3, 2-Bromo-6-methyl-5,6,11,12-tetrahydrodibenzo[a,e]cycloocten-6.11-imine hydrochloride], in test [1], the ED50 is < 5 mg/kg. For `COc1ccc2c(c1)CC1NC(C)(C2)c2ccccc21` (stereo not drawn) [Example 12, 2-Methoxy-6-methyl-5,6,11,12-tetrahydrodibenzo [a,e]cycloocten-6,11-imine hydrochloride], the Kb (in general, the affinity of an antagonist, worked out from how it opposes an agonist) in test [2] was < 2000 nM. Take `CC12Cc3ccc(O)cc3CC(N1)c1ccccc12` (stereo not drawn) [Example 13, 2-Hvdroxy-6-methyl-5,6,11,12-tetrahydrodibenzo[a,e]cycloocten-6.11-imine hydrochloride]: the Kb in test [2] is < 2000 nM. As for `CC12Cc3ccccc3CC(O)(N1)c1ccccc12` (stereo not drawn) [Example 15, 11-Hydroxy-6-methyl-5,6,11,12-tetrahydrodibenzo[a,e]cycloocten-6,11-imine hydrochloride], the ED50 in test [1] was < 5 mg/kg. Regarding `CC12Cc3ccccc3CC(C)(N1)c1ccccc12` [Example 16, 6,11-Dimethyl-5,6,11,12-tetrahydrodibenzo[a,e]cycloocten-6,11-imine hydrochloride], the median effective dose (ED50) in test [1] is < 5 mg/kg.
